The NIST ThermoML archive (doi:10.1021/je060271a)

Conditions: 343.15 K, Liquid, Vibrating tube method

CCCCC(=O)OCC(COC(=O)CCCC)(COC(=O)CCCC)COC(=O)CCCC [pentaerythritol tetrapentanoate]
Conditions	mass density [kg/m3]
27496 kPa	998.3
27541 kPa	998.4
27578 kPa	998.4
27617 kPa	998.5
27662 kPa	998.4
27700 kPa	998.5
27738 kPa	998.5
27785 kPa	998.6
27824 kPa	998.6
27862 kPa	998.5
27909 kPa	998.6
27948 kPa	998.7
27987 kPa	998.7
28026 kPa	998.7
28074 kPa	998.7
28113 kPa	998.8
28153 kPa	998.7
28200 kPa	998.8
28240 kPa	998.9
28289 kPa	998.9
28330 kPa	998.9
28371 kPa	998.8
28412 kPa	998.9
28453 kPa	999
28503 kPa	998.9
28545 kPa	999
28596 kPa	999.1
28641 kPa	999
28684 kPa	999
28725 kPa	999.2
28755 kPa	999.2
28785 kPa	999.3
28821 kPa	999.1
28853 kPa	999.3
28882 kPa	999.3
28912 kPa	999.2
28948 kPa	999.2
28978 kPa	999.3
29009 kPa	999.3
29045 kPa	999.5
29076 kPa	999.4
29107 kPa	999.3
29143 kPa	999.5
29174 kPa	999.4
29204 kPa	999.5
29242 kPa	999.5
29275 kPa	999.5
29306 kPa	999.5
29338 kPa	999.6
29375 kPa	999.6
29406 kPa	999.6
29437 kPa	999.6
29474 kPa	999.6
29506 kPa	999.7
29538 kPa	999.7
29576 kPa	999.7
29607 kPa	999.7
29639 kPa	999.8
29671 kPa	999.8
29710 kPa	999.8
29741 kPa	999.9
29780 kPa	999.8
29812 kPa	999.9
29845 kPa	999.9
29878 kPa	999.9
29917 kPa	1000
29950 kPa	999.9
29983 kPa	1000.1
30022 kPa	999.9
30056 kPa	1000
30088 kPa	999.9
30128 kPa	1000.2
30194 kPa	1000.1
30227 kPa	1000.2
30266 kPa	1000.1
30299 kPa	1000.3
30333 kPa	1000.3
30374 kPa	1000.1
30407 kPa	1000.2
30441 kPa	1000.2
30480 kPa	1000.3
30514 kPa	1000.3
30549 kPa	1000.3
30590 kPa	1000.5
30624 kPa	1000.3
30658 kPa	1000.4
30698 kPa	1000.5
30733 kPa	1000.5
30767 kPa	1000.5
30808 kPa	1000.6
30843 kPa	1000.4
30878 kPa	1000.6
30919 kPa	1000.5
30954 kPa	1000.5
30990 kPa	1000.7
31031 kPa	1000.7
31067 kPa	1000.8
31103 kPa	1000.6
31138 kPa	1000.7
31181 kPa	1000.7
31216 kPa	1000.7
31252 kPa	1000.8
31294 kPa	1000.8
31330 kPa	1000.9
31366 kPa	1000.9
31409 kPa	1001
31444 kPa	1000.8
31481 kPa	1000.8
31524 kPa	1000.8
31560 kPa	1000.9
31597 kPa	1000.9
31634 kPa	1001
31678 kPa	1001
31714 kPa	1001
31758 kPa	1001.1
31795 kPa	1001
31832 kPa	1001
31876 kPa	1001.1
31913 kPa	1001.1
31950 kPa	1001.3
31995 kPa	1001.3
32033 kPa	1001.4
32074 kPa	1001.2
32111 kPa	1001.4
32156 kPa	1001.3
32194 kPa	1001.5
32232 kPa	1001.2
32278 kPa	1001.4
32438 kPa	1001.5
32476 kPa	1001.5
32563 kPa	1001.6
32604 kPa	1001.6
32643 kPa	1001.6
32691 kPa	1001.8
32730 kPa	1001.6
32769 kPa	1001.8
32816 kPa	1001.8
32856 kPa	1001.8
32896 kPa	1001.8
32943 kPa	1001.8
32983 kPa	1001.9
33024 kPa	1001.9
33064 kPa	1001.9
33114 kPa	1002
33154 kPa	1001.9
33196 kPa	1001.9
33244 kPa	1002.1
33285 kPa	1002.1
33326 kPa	1002.2
33374 kPa	1002
33416 kPa	1002.1
33457 kPa	1002.2
33507 kPa	1002.2
33548 kPa	1002.2
33591 kPa	1002.3
33641 kPa	1002.3
33684 kPa	1002.3
33726 kPa	1002.5
33778 kPa	1002.4
33822 kPa	1002.4
